Tested on: UL74stop virus
Assay: Inhibition assay with UL74stop virus
Format: cell-based, Human cytomegalovirus
Procedure: To further investigate this, inhibition assays were performed with the UL74stop virus (FIG. 8B). As deletion of pUL74 from the virus has a severe effect on infectivity, virions had to be 50 fold concentrated for the experiment, whereas wild type virus had to be diluted to achieve similar infection rates.
FIG. 8: pUL74 is the viral interaction partner of PDGFR-alpha-Fc. Virus preparations of strain TB40-BAC4 or TB40-BAC4UL74stop were pretreated for 2 h with PDGFR-alpha-Fc. A: HFFs were fixed after 90 min of incubation with the virus-inhibitor mixture followed by staining for the viral structural protein pUL32 (red) and for Fc (green). B: Wild type or pUL74stop virus preparations were pre-incubated for 2 h with PDGFR-alpha-Fc before infection of HFFs or HECs was allowed. Wild type or UL74stop virus preparations were diluted or concentrated respectively to obtain similar infection rates. Infection rates were determined by calculation of the number of immediate early positive nuclei over total DAPI stained nuclei per image. Out of three independent experiments one is shown.

PDGFR-alpha-Fc: recombinant Fc-fusion protein of the PDGFR-alpha extracellular domain, obtained from R&D (6765-PR-050)
infectivity of the UL74stop virus with increasing doses: did not significantly change
